Literature values in US8962594B2, “Method of using nutritional compounds dihydroquercetin (taxifolin) and arabinogalactan in combination with dihydroquercetin (taxifolin) to reduce and control cardiometabolic risk factors associated with metabolic syndrome and hypercholesterolemia” (Flavitpure, Inc., priority 2012, dated 2015).

Tests used:
RBCs [1] = conditions: pre-incubation of RBCs with water-soluble compound for 30 min; remaining hemolysis
RBCs [2] = conditions: remaining hemolysis; vehicle 75.7±5.2%, P<0.001
RGC-5 cells = conditions: read-out: EC50 for protection of RGC-5 cells from oxidative stress induced by GSH depletion
[3] = system: CNS-derived mouse HT22 cells; conditions: read-out: EC50 for protection of HT22 cells from a similar insult
[4] = system: Glutathione prexidase (GPx); conditions: 25 and 50 μM
HepG2 cells = conditions: 200 umol, within 24 h
HMG-CoA reductase = molecular target: T1, HMG-CoA reductase (Homo sapiens, UniProt P04035)
T1 construct: endogenous in cells; host or cells: HepG2
T1 sequence (P04035 1-888): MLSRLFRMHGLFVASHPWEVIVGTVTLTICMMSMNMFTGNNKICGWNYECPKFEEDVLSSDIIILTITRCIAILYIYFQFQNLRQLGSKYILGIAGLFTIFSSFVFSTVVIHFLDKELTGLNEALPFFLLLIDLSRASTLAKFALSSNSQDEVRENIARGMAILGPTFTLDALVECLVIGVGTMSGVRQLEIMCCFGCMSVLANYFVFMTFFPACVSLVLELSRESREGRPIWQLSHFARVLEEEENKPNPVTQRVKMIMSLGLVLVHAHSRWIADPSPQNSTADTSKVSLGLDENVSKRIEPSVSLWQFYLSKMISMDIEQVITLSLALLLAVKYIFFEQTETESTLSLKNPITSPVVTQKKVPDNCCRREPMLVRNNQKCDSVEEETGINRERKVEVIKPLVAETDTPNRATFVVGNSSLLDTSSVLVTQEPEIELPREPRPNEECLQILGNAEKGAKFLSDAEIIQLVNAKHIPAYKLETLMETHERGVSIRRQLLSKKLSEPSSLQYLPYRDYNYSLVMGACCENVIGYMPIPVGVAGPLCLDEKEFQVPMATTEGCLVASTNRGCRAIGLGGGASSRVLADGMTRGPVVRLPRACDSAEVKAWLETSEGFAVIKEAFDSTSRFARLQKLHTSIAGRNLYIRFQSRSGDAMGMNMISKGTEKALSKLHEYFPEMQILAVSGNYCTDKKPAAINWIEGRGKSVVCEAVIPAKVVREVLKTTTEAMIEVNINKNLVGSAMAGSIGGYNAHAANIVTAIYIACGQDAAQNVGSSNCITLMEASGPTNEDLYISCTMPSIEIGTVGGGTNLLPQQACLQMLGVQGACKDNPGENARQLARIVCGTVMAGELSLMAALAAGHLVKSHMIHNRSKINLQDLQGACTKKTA

[5] = system: apolipoprotein A-I (apoA-I); conditions: pulse-chase, HepG2 cells
[6] = system: diacylglycerol acyltransferase (DGAT); conditions: non-competitive
[7] = molecular target: T2, microsomal triglyceride transfer protein (MTP) (Homo sapiens, UniProt P55157)
T2 construct: endogenous in cells; host or cells: HepG2
T2 sequence (P55157 19-894): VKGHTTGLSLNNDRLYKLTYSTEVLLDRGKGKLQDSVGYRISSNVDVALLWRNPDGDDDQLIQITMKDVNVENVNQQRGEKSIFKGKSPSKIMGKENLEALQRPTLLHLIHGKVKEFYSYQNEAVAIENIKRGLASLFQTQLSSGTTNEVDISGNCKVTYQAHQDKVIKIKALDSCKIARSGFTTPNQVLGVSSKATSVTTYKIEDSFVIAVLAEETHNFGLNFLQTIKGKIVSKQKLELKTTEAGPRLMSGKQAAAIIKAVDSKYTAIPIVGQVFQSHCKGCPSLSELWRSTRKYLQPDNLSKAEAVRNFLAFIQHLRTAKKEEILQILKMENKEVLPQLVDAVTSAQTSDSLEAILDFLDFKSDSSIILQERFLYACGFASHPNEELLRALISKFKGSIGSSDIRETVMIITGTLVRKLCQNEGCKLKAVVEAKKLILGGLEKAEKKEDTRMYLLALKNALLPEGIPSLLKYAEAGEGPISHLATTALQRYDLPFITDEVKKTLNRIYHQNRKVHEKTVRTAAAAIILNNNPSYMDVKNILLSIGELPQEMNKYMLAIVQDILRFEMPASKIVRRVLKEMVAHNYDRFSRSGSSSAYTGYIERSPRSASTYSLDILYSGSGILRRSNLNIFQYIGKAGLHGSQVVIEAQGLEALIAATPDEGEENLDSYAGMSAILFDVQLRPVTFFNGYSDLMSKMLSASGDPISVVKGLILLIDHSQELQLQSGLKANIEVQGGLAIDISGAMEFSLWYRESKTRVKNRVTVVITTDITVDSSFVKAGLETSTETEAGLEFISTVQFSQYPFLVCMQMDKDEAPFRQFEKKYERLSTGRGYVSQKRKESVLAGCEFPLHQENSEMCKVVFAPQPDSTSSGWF

PPARa = conditions: supplementation of HepG2 cells
rats = rats treated with high levels for long periods of time
TNF-α = conditions: LPS-stimulated PBMC, pre-treated
IL-1β = conditions: LPS-stimulated PBMC, pre-treated

Row | SMILES | peroxyl radical (AAPH)-induced hemolysis reduced to (RBCs [1]) [%] | phospholipase C-induced hemolysis (RBCs [2]) [%] | EC50 (RGC-5 cells) [µM] | EC50 [3] [µM] | Glutathione prexidase (GPx) protein level [4] | inhibition of cholesterol synthesis (HepG2 cells) | inhibition of HMG-CoA reductase activity (HMG-CoA reductase) | increase of ApoA-I secretion [5] | reduction of apoB secretion (apolipoprotein B (apoB); basal and lipid-rich conditions, 200 micromol/L) | average reduction in labeled apoB in the medium (apolipoprotein B (apoB); pulse-chase, HepG2 cells) | decrease in DGAT activity (change) [6] [%] | inhibition of MTP [7] [%] | DGAT-1 mRNA expression (DGAT-1 mRNA) | DGAT-2 mRNA expression (DGAT-2 mRNA) | PPARa expression (PPARa) | toxic effects (rats) | TG transfer into the microsomal lumen (change) (microsomal TG synthesis) [%] | inhibition of microsomal TG synthesis (microsomal TG synthesis) [%] | mean inhibition of the secretion of TNF-α (TNF-α) [%] | inhibition of IL-1β secretion (IL-1β) [%]
1 | O=C1c2c(O)cc(O)cc2OC(c2ccc(O)c(O)c2)C1O (racemic) [Dihydroquercetin (taxifolin)] | 32.5±5.6 | 45.4±10.0 | 30 | > 50 | significantly increased | 86+−3% | 47+−7% | 36+−10% | up to 63% | 61+−8% | −35 | 41 | essentially unchanged | essentially unchanged | increase | No toxic effects | −26 | 37 |  | 
2 | O=C(O)Cc1ccc(O)c(O)c1 [3,4-DHPAA, 3,4-dihydroxyphenylacetic acid] |  |  |  |  |  |  |  |  |  |  |  |  |  |  |  |  |  |  | 86.4 | 97.9
